Assay [1] deals with T1, FAK (GST-FAK, flag-FAK) (Homo sapiens, UniProt Q05397).
T1 construct: gene PTK2; full-length FAK, GST- or flag-tagged, produced in HEK293 cells; tags kept; endogenous HUVEC protein also pulled down
Briefly: affinity resin pull-down of purified protein, western blot. Type of assay: binding. Particulars: immobilised 5-PCP-InsP5 resin; 4 °C overnight; also endogenous protein from HUVEC lysate; free 5-PCP (10 μM) with 5-InsP7 (5 μM) in a FAK dimerization competition assay. A general note: In western blotting, separated proteins are transferred to a membrane and probed.

The target of the next assay is T2, p34 (flag-p34) (Homo sapiens, UniProt O15144).
T2 construct: gene ARPC2; tag kept; endogenous HUVEC protein also pulled down
Described as above. In kind it is binding. Particulars: immobilised 5-PCP-InsP5 resin; 4 °C overnight; also endogenous protein from HUVEC lysate.

For another assay, the target named is T3, endogenous FAK (MEF) (Mus musculus, UniProt P34152).
T3 construct: gene Ptk2; endogenous full-length FAK in lysates of WT and IP6K1 KO mouse embryonic fibroblasts
Briefly: affinity resin pull-down from cell lysate, western blot. Type of assay: biochemical. Conditions: immobilised 5-PCP-InsP5 resin.

The next assay concerns the target T4, coronin (GST-coronin) (Homo sapiens, UniProt Q9BR76).
T4 construct: gene CORO1B; GST-fused coronin produced in HEK293 cells, eluted with glutathione; tag kept; endogenous HUVEC protein also pulled down
Briefly: affinity resin pull-down of purified protein, western blot. Type of assay: binding. Conditions: immobilised 5-PCP-InsP5 resin; 4 °C overnight; also endogenous protein from HUVEC lysate.

Assay [2] addresses T1, FAK (GST-FAK, flag-FAK). Kind of assay: bead pull-down of GST-FAK by flag-FAK, western blot. Type of assay: binding. Particulars: CF2 (10 μM) competing with 5-InsP7 (5 μM).

The values below come from publication PMC7614367, “Itraconazole inhibits endothelial cell migration by disrupting inositol pyrophosphate-dependent focal adhesion dynamics and cytoskeletal remodeling” (Biomedicine & Pharmacotherapy, 2023).

T1 sequence (Q05397 2-1052): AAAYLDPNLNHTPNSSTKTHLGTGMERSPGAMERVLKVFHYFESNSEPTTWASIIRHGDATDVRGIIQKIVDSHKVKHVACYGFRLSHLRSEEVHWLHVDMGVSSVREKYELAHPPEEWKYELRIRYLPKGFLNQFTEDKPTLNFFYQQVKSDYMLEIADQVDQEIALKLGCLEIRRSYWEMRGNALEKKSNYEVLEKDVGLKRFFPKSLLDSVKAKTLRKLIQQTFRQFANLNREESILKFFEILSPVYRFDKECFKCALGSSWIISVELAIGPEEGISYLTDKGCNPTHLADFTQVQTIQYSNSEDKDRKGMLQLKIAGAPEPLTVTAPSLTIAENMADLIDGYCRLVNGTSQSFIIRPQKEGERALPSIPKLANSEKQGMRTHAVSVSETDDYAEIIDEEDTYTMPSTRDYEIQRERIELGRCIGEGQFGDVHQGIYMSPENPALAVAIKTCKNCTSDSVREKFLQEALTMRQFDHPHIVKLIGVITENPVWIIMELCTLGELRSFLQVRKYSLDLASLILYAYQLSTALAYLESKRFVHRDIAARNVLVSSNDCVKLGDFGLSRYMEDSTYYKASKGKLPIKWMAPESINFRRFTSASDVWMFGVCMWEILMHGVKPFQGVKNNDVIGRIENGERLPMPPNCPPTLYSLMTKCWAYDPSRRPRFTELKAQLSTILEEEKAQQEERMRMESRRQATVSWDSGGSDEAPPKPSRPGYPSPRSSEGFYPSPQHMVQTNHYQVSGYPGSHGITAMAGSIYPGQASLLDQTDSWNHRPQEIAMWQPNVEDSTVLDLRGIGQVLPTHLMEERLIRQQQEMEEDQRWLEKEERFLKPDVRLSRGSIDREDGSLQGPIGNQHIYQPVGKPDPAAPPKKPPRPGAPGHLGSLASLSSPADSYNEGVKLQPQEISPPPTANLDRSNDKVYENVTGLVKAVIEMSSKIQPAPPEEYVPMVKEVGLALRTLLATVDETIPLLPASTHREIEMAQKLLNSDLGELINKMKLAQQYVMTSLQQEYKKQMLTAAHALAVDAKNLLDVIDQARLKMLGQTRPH
T3 sequence (P34152 2-1052): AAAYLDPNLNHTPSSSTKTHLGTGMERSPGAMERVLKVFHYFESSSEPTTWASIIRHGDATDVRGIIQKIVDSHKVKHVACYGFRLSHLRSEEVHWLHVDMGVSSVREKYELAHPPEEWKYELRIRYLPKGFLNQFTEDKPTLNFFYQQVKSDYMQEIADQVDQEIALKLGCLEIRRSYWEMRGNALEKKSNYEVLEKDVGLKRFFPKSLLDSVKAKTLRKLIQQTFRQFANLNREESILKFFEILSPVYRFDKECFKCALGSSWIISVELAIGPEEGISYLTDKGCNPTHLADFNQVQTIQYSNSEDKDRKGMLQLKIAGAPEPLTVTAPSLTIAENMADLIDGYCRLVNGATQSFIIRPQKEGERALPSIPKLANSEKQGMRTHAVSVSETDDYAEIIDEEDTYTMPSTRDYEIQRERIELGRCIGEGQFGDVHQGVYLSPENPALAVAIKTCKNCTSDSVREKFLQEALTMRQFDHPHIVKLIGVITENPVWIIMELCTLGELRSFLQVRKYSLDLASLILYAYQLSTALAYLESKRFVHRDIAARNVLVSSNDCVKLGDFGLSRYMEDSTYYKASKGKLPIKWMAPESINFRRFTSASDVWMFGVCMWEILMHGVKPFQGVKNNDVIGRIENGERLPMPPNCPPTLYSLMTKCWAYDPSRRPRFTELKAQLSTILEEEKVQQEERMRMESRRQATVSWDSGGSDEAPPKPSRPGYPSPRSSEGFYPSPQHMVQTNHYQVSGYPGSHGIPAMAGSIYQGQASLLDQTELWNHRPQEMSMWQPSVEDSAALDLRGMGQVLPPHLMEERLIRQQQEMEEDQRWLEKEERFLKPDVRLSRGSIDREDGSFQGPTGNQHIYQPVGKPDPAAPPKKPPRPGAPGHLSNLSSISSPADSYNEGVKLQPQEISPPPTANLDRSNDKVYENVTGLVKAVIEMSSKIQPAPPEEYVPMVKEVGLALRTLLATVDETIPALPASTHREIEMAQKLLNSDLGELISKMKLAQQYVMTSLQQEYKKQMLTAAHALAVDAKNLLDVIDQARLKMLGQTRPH
T4 sequence (Q9BR76 whole entry, the tested form may be a part): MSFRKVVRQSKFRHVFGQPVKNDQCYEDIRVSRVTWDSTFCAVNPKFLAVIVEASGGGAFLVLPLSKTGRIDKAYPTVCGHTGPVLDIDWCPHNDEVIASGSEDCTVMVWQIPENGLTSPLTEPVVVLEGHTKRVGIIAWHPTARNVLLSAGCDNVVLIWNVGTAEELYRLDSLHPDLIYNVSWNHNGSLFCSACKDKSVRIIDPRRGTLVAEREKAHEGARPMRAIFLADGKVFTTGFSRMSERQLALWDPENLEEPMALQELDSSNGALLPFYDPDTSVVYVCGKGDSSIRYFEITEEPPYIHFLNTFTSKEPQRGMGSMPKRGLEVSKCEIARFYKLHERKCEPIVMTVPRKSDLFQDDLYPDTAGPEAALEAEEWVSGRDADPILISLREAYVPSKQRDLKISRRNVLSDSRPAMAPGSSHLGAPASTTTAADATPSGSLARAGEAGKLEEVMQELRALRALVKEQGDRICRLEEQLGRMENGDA

Turning to `O=P(O)(O)CP(=O)(O)O[C@H]1[C@H](OP(=O)(O)O)[C@@H](OP(=O)(O)O)[C@@H](OP(=O)(O)O)[C@@H](OP(=O)(O)O)[C@@H]1OP(=O)(O)O` [5-PCP-InsP5], the “affinity resin pull-down of purified protein, western blot” value is 5-PCP resin pulls down purified full length (FL) FAK and FAK FERM domain at FAK (GST-FAK, flag-FAK) [1]; “pulls down purified p34 and coronin in an in vitro protein binding assay” on p34 (flag-p34); “pulls down purified p34 and coronin in an in vitro protein binding assay” on coronin (GST-coronin). In addition, the “affinity resin pull-down from cell lysate, western blot” value on endogenous FAK (MEF) is 5-PCP resin pulls down endogenous FAK in WT and IP6K1 KO MEF cells.

Consider `O=C(N[C@@H]1[C@@H](OP(=O)(O)O)[C@H](OP(=O)(O)O)[C@H](OP(=O)(O)O)[C@H](OP(=O)(O)O)[C@H]1OP(=O)(O)O)C(F)(F)P(=O)(O)O` [5-PCF2Am-InsP5], for which, at FAK (GST-FAK, flag-FAK) [2], the “block of 5-InsP7-mediated FAK dimerization” value is 5-PCP and CF2 compete with 5-InsP7 to block 5-InsP7-mediated FAK dimer formation.
